From US4273866A, “Ligand analog-irreversible enzyme inhibitor conjugates and methods for use” (priority 1979, dated 1981)

Target: acetylcholinesterase (T.californica) (Tetronarce californica, UniProt P04058)
Assay: Antibody modulation of inhibition by Compound II and reversal by cholylglycine
Assay type: biochemical
Procedure: Antibody against cholylglycine-bovine serum albumin (BSA) conjugates were raised in rabbits, and the rabbit serum obtained by conventional techniques. The anti-cholylglycine IgG fraction was obtained by ammonium sulfate fractionation and ion exchange chromatography. The concentration of antibody was not determined but was adjusted from a pooled fraction from the ion exchange column to give best modulation of inhibition by Compound II. […] The experiment is carried out on an ABA-100® model bichromatic analyzer (Abbott Laboratories, North Chicago, Illinois) and the following settings were used:
The substrate solution and buffer are placed in the primary syringe of the dilution plate. The buffer is pH 7.0, 0.1 M potassium phosphate, 0.1% gelatin. The substrate is acetylthiocholine at 5.0×10^-4 M with DTNB at 1.6×10^-4 M as indicator. […] In all cases, the acetylcholinesterase (T.californica) concentration is approximately 2×10^-10 M and Compound II, the inhibitor, concentration is 10×10^-7 M. Where cholylglycine is added, the concentration in the sample cup is 10^-3 M. The sample cup contains pH 7.0, 0.1 M potassium phosphate buffer containing 0.1% gelatin plus the indicated components in the table: […]

[1] = enzyme + the substance only, T = 0 (E alone .246)
[2] = enzyme + the substance only, T = 13 min (E alone .237)
[3] = enzyme + the substance only, T = 25 min (E alone .234)
[4] = enzyme + the substance only, T = 36 min (E alone .230)

Chain of acetylcholinesterase (T.californica) (P04058 22-564): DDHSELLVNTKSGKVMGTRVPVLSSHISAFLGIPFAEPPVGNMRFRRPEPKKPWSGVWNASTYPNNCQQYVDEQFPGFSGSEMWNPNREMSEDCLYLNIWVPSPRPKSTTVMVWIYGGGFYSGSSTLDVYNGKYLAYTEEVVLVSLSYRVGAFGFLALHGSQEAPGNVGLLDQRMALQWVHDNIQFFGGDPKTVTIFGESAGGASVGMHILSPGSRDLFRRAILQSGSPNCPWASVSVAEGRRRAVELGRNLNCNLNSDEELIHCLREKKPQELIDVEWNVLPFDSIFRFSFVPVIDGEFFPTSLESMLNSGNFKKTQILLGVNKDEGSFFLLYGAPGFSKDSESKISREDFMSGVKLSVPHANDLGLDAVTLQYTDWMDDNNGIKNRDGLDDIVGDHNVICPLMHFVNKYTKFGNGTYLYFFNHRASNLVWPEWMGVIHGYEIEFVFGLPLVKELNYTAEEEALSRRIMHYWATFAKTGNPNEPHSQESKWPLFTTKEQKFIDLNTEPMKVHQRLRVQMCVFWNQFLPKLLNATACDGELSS

| SMILES | Change in Ad in 5 Minutes (E + Ab + CG (10^-3 M), no inhibitor, T = 0) | Change in Ad in 5 Minutes (E + Ab + CG (10^-3 M), no inhibitor, T = 13 min) | Change in Ad in 5 Minutes (E + Ab + CG (10^-3 M), no inhibitor, T = 25 min) | Change in Ad in 5 Minutes (E + Ab + CG (10^-3 M), no inhibitor, T = 36 min) | Change in Ad in 5 Minutes [1] | Change in Ad in 5 Minutes [2] | Change in Ad in 5 Minutes [3] | Change in Ad in 5 Minutes [4] | Change in Ad in 5 Minutes (E + I + Ab + CG (10^-3 M), T = 0) | Change in Ad in 5 Minutes (E + I + Ab + CG (10^-3 M), T = 13 min) | Change in Ad in 5 Minutes (E + I + Ab + CG (10^-3 M), T = 25 min) | Change in Ad in 5 Minutes (E + I + Ab + CG (10^-3 M), T = 36 min) | Change in Ad in 5 Minutes (E + I + Ab, T = 0) | Change in Ad in 5 Minutes (E + I + Ab, T = 13 min) | Change in Ad in 5 Minutes (E + I + Ab, T = 25 min) | Change in Ad in 5 Minutes (E + I + Ab, T = 36 min) | Change in Ad in 5 Minutes (E + I + CG (10^-3 M), T = 0) | Change in Ad in 5 Minutes (E + I + CG (10^-3 M), T = 13 min) | Change in Ad in 5 Minutes (E + I + CG (10^-3 M), T = 25 min) | Change in Ad in 5 Minutes (E + I + CG (10^-3 M), T = 36 min) |
| --- | --- | --- | --- | --- | --- | --- | --- | --- | --- | --- | --- | --- | --- | --- | --- | --- | --- | --- | --- | --- |
| C[C@H](CCC(=O)NCC(=O)O)[C@H]1CC[C@H]2[C@@H]3[C@H](O)C[C@@H]4C[C@H](O)CC[C@]4(C)[C@H]3C[C@H](O)[C@]12C [CG, cholylglycine, reference compound] | .225 Ad/5 Min. | .223 Ad/5 Min. | .216 Ad/5 Min. | .207 Ad/5 Min. | .236 Ad/5 Min. | .228 Ad/5 Min. | .220 Ad/5 Min. | .211 Ad/5 Min. | – | – | – | – | – | – | – | – | – | – | – | – |
| CCOP(=O)(OCCCCCNC(=O)CCCCCNC(=O)CC[C@@H](C)[C@H]1CC[C@H]2[C@@H]3[C@H](O)C[C@@H]4C[C@H](O[Si](C)(C)C(C)(C)C)CC[C@]4(C)[C@H]3C[C@H](O)[C@]12C)Oc1ccc2ccc[n+](C)c2c1 (stereo partly drawn) [Compound II] | – | – | – | – | .226 Ad/5 Min. | .072 Ad/5 Min. | .025 Ad/5 Min. | .013 Ad/5 Min. | .224 Ad/5 Min. | .078 Ad/5 Min. | .032 Ad/5 Min. | .017 Ad/5 Min. | .235 Ad/5 Min. | .192 Ad/5 Min. | .164 Ad/5 Min. | .147 Ad/5 Min. | .224 Ad/5 Min. | .062 Ad/5 Min. | .022 Ad/5 Min. | .013 Ad/5 Min. |
